Values quoted from earlier work as cited in US20220220558A1, “METHODS AND SYSTEMS FOR PROGNOSIS OF A PATIENT'S RESPONSE TO TREATMENT OF ANDROGENETIC SKIN DISORDERS” (priority 2008, published 2022).

Tested on: female androgenetic alopecia
Conditions: clinical trials

## CC(C)(C)NC(=O)[C@H]1CC[C@H]2[C@@H]3CC[C@H]4NC(=O)C=C[C@]4(C)[C@H]3CC[C@]12C [finasteride]
  affect on hair re-growth in women: statistically not significant
